Experimental data: US20110224079A1, “SPIROHETEROCYCLIC N-OXYAMIDES AS PESTICIDES” (SYNGENTA CROP PROTECTION LLC, priority 2008, published 2011)

What was measured:
[1] = system: Myzus persicae (green peach aphid); experiment: Example B1: activity against Myzus persicae, sprayed sunflower leaf discs (feeding/residual contact, preventive); settings: foliar, 144 h, read-out: activity (mortality)
[2] = system: Aphis Craccivora (cowpea aphid); experiment: Example B16: activity against Aphis craccivora on broad bean plants, adjuvant effect, curative (EC050 spray); type: in vivo; settings: 3 ppm, adjuvant (if any) 0.1% (v/v), 7 days after treatment
Experimental: One day after infestation, plants are treated with diluted test solutions of the compound formulated as EC050 in a spray chamber (4 replicates). Optionally, an adjuvant is added with 0.1% (v/v) to the spray solution. 7 days after treatment samples are checked for mortality. Efficacy was calculated with the aid of Abbott's formula.

[3] = system: Nilaparvata lugens (brown rice planthopper); experiment: Example B8: activity against Nilaparvata lugens, sprayed rice seedlings (larvicide, feeding/contact); settings: in Oryza sativa, read-out: activity (mortality, growth regulation, effects on F1 generation)
[4] = system: Myzus persicae (green peach aphid); experiment: Example B13: drench activity against Myzus persicae, pea seedlings in field soil; settings: 168 h, read-out: drench activity (mortality)
[5] = system: Bemisia tabaci (tobacco white fly); experiment: Example B7: activity against Bemisia tabaci, sprayed bean plants (larvicide, contact/feeding); type: in vivo; settings: 504 h, bean plants with N-2 nymphs sprayed, three weeks, read-out: activity (efficacy, number of emerged adults)
Summary of the method: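 After a 4-day egg-laying period and 7 further days, bean plants bearing hatched N-2 nymphs were sprayed with test solutions (2 replicates). Emerged adults were counted three weeks later; efficacy was derived by comparison with untreated samples.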

[6] = system: Tetranychus urticae (two-spotted spider mite); experiment: Example B4: activity against Tetranychus urticae, sprayed bean leaf discs (feeding/residual contact, preventive); settings: foliar, 192 h, read-out: activity (egg, larval and adult mortality)
[7] = system: Aphis Craccivora (cowpea aphid); experiment: Example B10: activity against Aphis craccivora, pea seedling roots in test solution (systemic/feeding); type: in vivo; settings: 144 h, roots of infested pea seedlings in test solution, 6 days
Description: (§1) Activity Against Aphis Craccivora (Cowpea Aphid)
(Mixed Population, Systemic/Feeding)

[8] = system: Aphis Craccivora (cowpea aphid); experiment: Example B11: translaminar activity against Aphis craccivora on French bean leaves; type: in vivo; settings: 120 h, upper leaf side painted, aphids on lower side, 5 days
Experimental: Translaminar Activity Against Aphis Craccivora (Cowpea Aphid)
French bean leaves (Phaseolus vulgaris) are infested with about 20 mixed age individuals on the lower leaf side using clip cages. 1 day after the infestation, the upper side of the leaves is treated with the test solution by painting. 5 days later, samples are checked for mortality.

[9] = system: Myzus persicae (green peach aphid); experiment: Example B2: activity against Myzus persicae, pea seedling roots in test solution (systemic/feeding, curative); settings: 144 h, read-out: activity (mortality)
[10] = system: Aphis Craccivora (cowpea aphid); experiment: Example B9: activity against Aphis craccivora, sprayed pea seedlings (contact/feeding); type: in vivo; settings: 144 h, infested pea seedlings sprayed, 6 days
Description: as §1
(Mixed Population, Contact/Feeding)
6 days after treatment, samples are checked for mortality.

[11] = system: Aonidiella Aurantii (red scale); experiment: Example B12: activity against Aonidiella aurantii, dipped potato tubers; type: in vivo; settings: 6-8 weeks after application, read-out: activity (number of crawlers of the next generation)
Description: Activity Against Aonidiella Aurantii (Red Scale)
Treatment of potato tubers by dipping the in the test solution. One day later, tubers are infested with about 50 crawlers. 6-8 weeks after application samples are checked for the number of crawlers of the next generation (compared to the non treated samples).

[12] = system: Myzus persicae (green peach aphid); experiment: Example B17: activity against Myzus persicae on sprayed pepper plants (feeding/residual contact); type: in vivo; settings: 144 h, infested pepper plants sprayed, 6 days
[13] = system: Frankliniella occidentalis (western flower thrips); experiment: Example B6: activity against Frankliniella occidentalis, bean leaf discs or bean plants; type: in vivo; settings: foliar, 6 days (leaf discs) or 14 days (plants) after infestation, read-out: activity (reduction of treated population)
Summary of the method: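 Bean leaf discs on agar or whole bean plants sprayed with diluted test solutions, then infested with a mixed thrips population after drying. Population reduction versus untreated assessed 6 days (discs) or 14 days (plants) after infestation.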

[14] = system: cowpea aphid (Aphis craccivora); experiment: Example B14: insecticide seed treatment of sugarbeet seeds, infestation with cowpea aphid; type: in vivo; settings: 0.3 mg a.i./seed, infested after 14 days, counted 7 days later
Experimental: Insecticide Seed Treatment
Sugarbeet seeds are treated with test compounds at various rates (mg a.i./seed). The seeds are sown into pots filled with soil. After placing the seeds on the soil surface they are further covered with soil. Before and during the bioassays, the plants are grown under optimal greenhouse conditions. After 14 days, the plants are infested with cowpea aphid (Aphis craccivora) by placing one infested pea seedling containing approximately 150 aphids of a population of mixed developmental stages onto each plant. Seven days after infestation, the number of aphids is counted per plant. Each treatment group is replicated 10 times. Each replicate contains 1 plant.

[15] = system: Plutella xylostella (diamond back moth); experiment: Example B5: activity against Plutella xylostella, artificial diet in microtiter plate (larvicide, preventive); type: in vivo; settings: 120 h, L2 larvae, 5 days, read-out: activity (larval mortality, antifeedant, growth regulation)
Experimental: Activity Against Plutella xylostella (Diamond Back Moth)
(Larvicide, Feeding/Residual Contact Activity, Preventive)
24-well microtiter plate (MTP) with artificial diet is treated with test solutions by pipetting. After drying, the MTP's are infested with larvae (L2)(10-15 per well). After an incubation period of 5 days, samples are checked for larval mortality, antifeedant and growth regulation.

Structure (SMILES) | mortality at 400 ppm [1] [%] | Abbott's efficacy (%) against Aphis craccivora ([2]; Table B16a) [%] | Abbott's efficacy (%) against Aphis craccivora ([2]; Table B16b) [%] | mortality at 400 ppm [3] [%] | mortality at 25 ppm [4] [%] | pest or weed control at 200 ppm [5] [%] | mortality at 400 ppm [6] [%] | mortality at 400 ppm [7] [%] | mortality at 400 ppm [8] [%] | mortality at 400 ppm [9] [%] | mortality at 400 ppm [10] [%] | pest or weed control at 200 ppm [11] [%] | mortality at 200 ppm [12] [%] | pest or weed control at 400 ppm [13] [%] | efficacy in the reduction of aphids compared to the untreated control plants [14] [%] | mortality at 400 ppm [15] [%]
CCOC(=O)OC1=C(c2c(C)cc(C)cc2C)C(=O)N(OCC)C12CCN(OC)CC2 [P1.15] | > 80 | 3 | 11 | > 80 | > 80 | > 80 | > 80 | > 80 | > 80 | > 80 | > 80 | > 80 | ≥ 80 | > 80 |  | 
COCON1C(=O)C(c2cc(C)ccc2C)=C(O)C12CCN(OC)CC2 [P2.2, 3-(2,5-dimethyl-phenyl)-4-hydroxy-8-methoxy-1-methoxymethoxy-1,8-diaza-spiro[4.5]dec-3-en-2-one] | > 80 |  |  | > 80 | > 80 | > 80 |  |  | > 80 | > 80 |  |  | ≥ 80 |  | 60 | > 80
